According to US9561231B2 (AbbVie Inc., priority 2012, dated 2017):
Read-outs that look alike come from different tables or passages of the source. Marks after values point to notes of the source that are not given here.

Legend:
[1] = biological target: T1, first (BD1: amino acids K57-E168) bromodomain of BRD4 (Homo sapiens, UniProt O60885); experiment: TR-FRET bromodomain binding assay, BRD4 BD1; conditions: Ki calculated from IC50, probe Kd and probe concentration, read-out: TR-FRET Binding Ki: BRD4 (BDI_K57-E168)
T1 construct: His-tagged first (BD1: amino acids K57-E168)
Summary of the method: (§1)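 Displacement of Alexa647-labeled BET-inhibitor probe from His-tagged bromodomain, TR-FRET read-out; buffer 20 mM Na phosphate pH 6.0, 50 mM NaCl, 0.01% Triton X-100. IC50 by 4PL fit; Ki calculated from IC50, probe Kd and probe concentration.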

[2] = biological target: T2, second (BD2: amino acids E352-E168) bromodomain of BRD4 (Homo sapiens, UniProt O60885); experiment: TR-FRET bromodomain binding assay, BRD4 BD2; conditions: Ki calculated from IC50, probe Kd and probe concentration, read-out: TR-FRET Binding Ki: BRD4 (BDII_E352-M457)
T2 construct: protocol
Summary of the method: as §1

[3] = system: breast cancer cell line MX-1; experiment: MX-1 cell line proliferation assay (3-day); format: cell-based; conditions: Homo sapiens, MX1, MX-1 cells, Cell Titer Glo, read-out: Cellular proliferation: EC50
Summary of the method: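 MX-1 cells in RPMI/10% FBS, plated 5000/well overnight, then exposed to compound at final 3 to 0.0001 μM (3-fold series) for 3 days at 37° C. Cell Titer Glo luminescence normalized to DMSO-treated cells; EC50 from sigmoidal curve fit.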

[4] = system: MV4-11 human AML xenograft; experiment: Xenograft tumor growth inhibition assay: MV4-11; format: in vivo, SCID-beige female mice; conditions: QDx14, tumor volumes study day 31
Method: (§2) The effect of example compounds to inhibit growth of human tumor xenografts implanted in mice was evaluated. Briefly, cells obtained from culture (MV4-11 and OPM-2) or tumor brie (MX-1) were suspended in cell culture medium (MEM, Suspension, no Calcium, no Glutamine, Life Technologies Corporation) containing Matrigel (phenol red free, Becton Dickinson Biosciences Discovery Labware) and inoculated subcutaneously (approximately 5 million per site) into the right hind flank of SCID-beige (MV4-11 and OPM-2) or SCID (MX-1) female mice (Charles Rivers Labs) on study day 0.
(§3) Tumors were measured with a pair of calipers twice a week starting at the time of size match and tumor volumes were calculated according to the formula V=L×W^2/2 (V: volume, mm^3; L: length, mm. W: width, mm). Tumor volume was measured throughout the treatment period or until the mean tumor volume in each group reached an endpoint of >1000 mm^3.

[5] = system: OPM-2 human multiple myeloma cancer xenograft; experiment: Xenograft tumor growth inhibition assay: OPM-2; format: in vivo, SCID-beige female mice
Method: as §2, §3

[6] = system: MX-1 human breast cancer xenograft; experiment: Xenograft tumor growth inhibition assay: MX-1
Method: as §2, §3

[7] = system: LPS induced IL-6 production; experiment: LPS (lipopolysaccharide) induced IL-6 production mouse assay; conditions: 1 h before LPS 2.5 mg/kg i.p., serum IL-6 2 h after LPS, p<0.05
Method: Severe combined immunodeficient female mice (5 per group) received an intraperitoneal challenge of lipopolysaccharide (2.5 mg/kg, L2630 E. coli 0111:B4) one hour after oral administration of compounds. Mice were euthanized 2 hours after lipopolysaccharide injection, blood was removed by cardiac puncture, and then the serum harvested from the blood samples was frozen at −80° C. On the day of the assay the serum samples were brought to room temperature and then diluted 1:20 in phosphate-buffered saline containing 2% bovine serum albumin. Interleukin-6 measurements were performed using a cytokine assay from Meso Scale Discovery (Gaithersburg, Md.) for mouse serum analysis according to the manufacturer's protocol and read on a SECTOR Imager 6000 (Meso Scale Discovery, Gaithersburg, Md.) instrument. Statistical analysis was performed using Prism software (version 5.0) incorporating Dunnett's one way ANOVA. The IL-6 mean and standard deviation of the group of vehicle treated animals were compared with the IL-6 mean and standard deviation of the group treated with drug. A p value <0.05 means that there is less than a 5% probability that the mean values in the two groups are equal.

[8] = TR-FRET assay protocol (A-G, compound concentration range)
[9] = 30 mg/kg/day PO, QDx14, endpoint 1000 mm^3
[10] = 1 mg/kg/day PO, QDx21, endpoint 1000 mm^3
[11] = 3 mg/kg/day PO, QDx21, endpoint 1000 mm^3
[12] = 3 mg/kg/day PO, QDx21, tumor volumes study day 27
[13] = TR-FRET assay protocol (D, E or G) per compound

Molecule `Cn1cc(-c2cc(NS(C)(=O)=O)ccc2Oc2ccc(F)cc2F)ccc1=O` [Example 240, N-[4-(2,4-difluorophenoxy)-3-(1-methyl-6-oxo-1,6-dihydropyridin-3-yl)phenyl]methanesulfonamide] has a Ki [1, 8] of 28.2 nM, a Ki [2, 8] of 107 nM and an EC50 ([3]; 72 h incubation) of 285 nM. The “% TGI (tumor growth inhibition)” value ([4]; 3 mg/kg/day PO) was 0%, the “% TGI (tumor growth inhibition)” value ([4]; 10 mg/kg/day PO) was 23% and the “% TGI (tumor growth inhibition)” value ([4]; 30 mg/kg/day PO) was 65^b** %. The “% TGI (tumor growth inhibition)” value ([5]; 30 mg/kg/day PO, QDx14) was 36** %, the “% TGD (tumor growth delay)” value [5, 9] was 113** % and the “% TGD (tumor growth delay)” value ([6]; 3 mg/kg/day PO, QDx14, endpoint 1000 mm^3) was 20%. The “% TGI (tumor growth inhibition)” value ([6]; 3 mg/kg/day PO, QDx14, tumor volumes study day 27) was 40* %, the “% TGD (tumor growth delay)” value ([6]; 10 mg/kg/day PO, QDx14, endpoint 1000 mm^3) was 35** % and the “% TGI (tumor growth inhibition)” value ([6]; 10 mg/kg/day PO, QDx14, tumor volumes study day 27) was 55*** %. The “% TGD (tumor growth delay)” value [6, 9] was 51*** %, the “% TGI (tumor growth inhibition)” value ([6]; 30 mg/kg/day PO, QDx14, tumor volumes study day 27) was 61*** % and the “Inhibition of LPS induced IL-6 production, % inhibition” value (“Inhibition … % inhibition” for short) ([7]; 30 mg/kg oral) was 72.6 @ 30 mg/kg %.
For `CCS(=O)(=O)Nc1ccc(Oc2ccc(F)cc2F)c(-c2cn(C)c(=O)cc2OC)c1` [Example 271, N-[4-(2,4-difluorophenoxy)-3-(4-methoxy-1-methyl-6-oxo-1,6-dihydropyridin-3-yl)phenyl]ethanesulfonamide], the Ki [1, 8] was 9.76 nM, the Ki [2, 8] was 1.55 nM and the EC50 ([3]; 72 h incubation) was 47.3 nM. The “% TGI (tumor growth inhibition)” value ([5]; 1 mg/kg/day PO, QDx21) was 66* %, the “% TGD (tumor growth delay)” value [5, 10] was 51*** % and the “% TGI (tumor growth inhibition)” value ([5]; 3 mg/kg/day PO, QDx21) was 73* %. For the same molecule, the “% TGD (tumor growth delay)” value [5, 11] was 93*** % and the “Inhibition … % inhibition” value ([7]; 3 mg/kg oral) was 76.9 @ 3 mg/kg %.
`CCOc1cc(=O)n(C)cc1-c1cc(NS(=O)(=O)CC)ccc1Oc1ccc(F)cc1F` [Example 285, N-[4-(2,4-difluorophenoxy)-3-(4-ethoxy-1-methyl-6-oxo-1,6-dihydropyridin-3-yl)phenyl]ethanesulfonamide] was tested, and the “% TGD (tumor growth delay)” value [6, 11] was 140^d** %, the “% TGI (tumor growth inhibition)” value [6, 12] was 84^d*** % and the “Inhibition … % inhibition” value ([7]; 3 mg/kg oral) was 84.0 @ 3 mg/kg %.
For `CCS(=O)(=O)Nc1ccc(Oc2ccc(F)cc2F)c(-c2cn(C)c(=O)cc2OCC(F)(F)F)c1` [Example 293, N-{4-(2,4-difluorophenoxy)-3-[1-methyl-6-oxo-4-(2,2,2-trifluoroethoxy)-1,6-dihydropyridin-3-yl]phenyl}ethanesulfonamide], the Ki [1, 8] was 37.1 nM, the Ki [2, 8] was 5.99 nM and the EC50 ([3]; 72 h incubation) was 115 nM. The “% TGD (tumor growth delay)” value [6, 10] was 11%, the “% TGI (tumor growth inhibition)” value ([6]; 1 mg/kg/day PO, QDx21, tumor volumes study day 27) was 6% and the “% TGD (tumor growth delay)” value [6, 11] was 42%. For the same molecule, the “% TGI (tumor growth inhibition)” value [6, 12] was 56* % and the “Inhibition … % inhibition” value ([7]; 3 mg/kg oral) was 71.0 @ 3 mg/kg %.
Molecule `COc1cc(=O)n(C)cc1-c1cc(NS(C)(=O)=O)ccc1Oc1ccc(F)cc1F` [Example 270, N-[4-(2,4-difluorophenoxy)-3-(4-methoxy-1-methyl-6-oxo-1,6-dihydropyridin-3-yl)phenyl]methanesulfonamide] has a Ki [1, 8] of 25.6 nM, a Ki [2, 8] of 10.9 nM and an EC50 ([3]; 72 h incubation) of 138 nM. The “% TGI (tumor growth inhibition)” value ([5]; 3 mg/kg/day PO, QDx21) was 42* %, the “% TGD (tumor growth delay)” value [5, 11] was 17% and the “% TGI (tumor growth inhibition)” value ([5]; 10 mg/kg/day PO, QDx21) was 60%. For the same molecule, the “% TGD (tumor growth delay)” value ([5]; 10 mg/kg/day PO, QDx21, endpoint 1000 mm^3) was 59** % and the “Inhibition … % inhibition” value ([7]; 3 mg/kg oral) was 68.8 @ 3 mg/kg %.
`Cn1cc(-c2cc(NS(C)(=O)=O)ccc2Oc2ccc(Cl)cc2)ccc1=O` [Example 233, N-[4-(4-chlorophenoxy)-3-(1-methyl-6-oxo-1,6-dihydropyridin-3-yl)phenyl]methanesulfonamide] gave a Ki [1, 8] of 19.2 nM, a Ki [2, 8] of 110 nM and an EC50 ([3]; 72 h incubation) of 423 nM. The “Inhibition … % inhibition” value ([7]; 30 mg/kg oral) was 75.9 @ 30 mg/kg %.
With `CCOc1cc(=O)n(C)cc1-c1cc(S(=O)(=O)CC)ccc1Oc1ccc(F)cc1F` [Example 375, 5-[2-(2,4-difluorophenoxy)-5-(ethylsulfonyl)phenyl]-4-ethoxy-1-methylpyridin-2(1H)-one] the Ki [1, 13] was 12.9 nM, the Ki [2, 13] was 3.22 nM and the EC50 ([3]; 72 hours with compound) was 40.2 nM. For the same molecule, the “Inhibition … % inhibition” value ([7]; 3 mg/kg oral) was 84.4 @ 3 mg/kg %.
